# Patent publication US20230145835A1, “Modulators of Alpha-4-beta-7 Integrin and MAdCAM” (48HD Biopharma Inc., priority 2021, published 2023)
# Numbered stars: 1 amine (or outer) side, 2 acyl side, 3 side chain; on linkers, the order of the positions; unused ones are H or OH. Bridge positions count the residues as written; N and C are the ends. Square brackets hold non-standard residues; d marks the D form. Peptide text beside a SMILES is read from it. I, II: the chains in the order shown. * marks the point of attachment. CO(CH2CH2O)5CH2CH2CO = O=C(CCOCCOCCOCCOCCOCCC(=O)[*:2])[*:1]; X3 = O=C(/C=N/OCCCCCCOc1cc(C[*:2])cc(C[*:3])c1)[*:1]; X1 = O=C(C=NOCCCCCCOc1cc(C[*:2])cc(C[*:3])c1)[*:1]; X5 = O=C(CCCCCCOc1cc(C[*:2])cc(C[*:3])c1)[*:1]; X11 = CCCCCOc1cc(C[*:1])cc(C[*:2])c1; X6 = CC[C@@H](C)C(N[*:1])C(=O)[*:2]; Cba = N[C@@H](CC1CCC1)C(=O)O; Nle = CCCC[C@H](N)C(=O)O; X10 = CO/N=C/C(=O)*
# Molecular target: T1, rh-integrin α4β7/LPAM-1 (Homo sapiens, UniProt P13612+P26010)
# T1 sequence (P13612 34-977 limits assumed): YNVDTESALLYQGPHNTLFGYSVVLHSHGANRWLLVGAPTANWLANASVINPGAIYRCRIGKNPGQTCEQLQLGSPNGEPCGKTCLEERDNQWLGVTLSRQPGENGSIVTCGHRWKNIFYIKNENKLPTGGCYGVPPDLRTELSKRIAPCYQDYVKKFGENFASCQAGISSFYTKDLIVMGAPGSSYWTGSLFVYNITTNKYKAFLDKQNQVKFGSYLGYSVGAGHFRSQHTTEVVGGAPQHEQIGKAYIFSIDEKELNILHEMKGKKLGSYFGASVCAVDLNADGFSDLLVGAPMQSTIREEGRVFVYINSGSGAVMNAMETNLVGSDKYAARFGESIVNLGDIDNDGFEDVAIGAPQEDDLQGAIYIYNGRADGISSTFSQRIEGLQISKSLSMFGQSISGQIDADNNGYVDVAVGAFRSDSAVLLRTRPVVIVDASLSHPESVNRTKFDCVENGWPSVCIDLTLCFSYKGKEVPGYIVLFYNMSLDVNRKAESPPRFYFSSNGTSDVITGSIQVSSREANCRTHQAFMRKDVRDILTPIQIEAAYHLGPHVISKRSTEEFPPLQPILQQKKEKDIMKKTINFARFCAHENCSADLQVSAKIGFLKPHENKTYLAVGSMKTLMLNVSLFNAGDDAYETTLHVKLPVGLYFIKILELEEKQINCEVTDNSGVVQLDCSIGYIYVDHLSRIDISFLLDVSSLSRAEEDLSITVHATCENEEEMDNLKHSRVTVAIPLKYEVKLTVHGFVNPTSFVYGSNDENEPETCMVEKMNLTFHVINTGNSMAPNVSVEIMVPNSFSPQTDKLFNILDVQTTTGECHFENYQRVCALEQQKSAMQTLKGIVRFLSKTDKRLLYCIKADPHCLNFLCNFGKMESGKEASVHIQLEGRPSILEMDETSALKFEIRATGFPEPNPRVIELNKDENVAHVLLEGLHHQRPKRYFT
# T1 sequence (P26010 20-723 limits assumed): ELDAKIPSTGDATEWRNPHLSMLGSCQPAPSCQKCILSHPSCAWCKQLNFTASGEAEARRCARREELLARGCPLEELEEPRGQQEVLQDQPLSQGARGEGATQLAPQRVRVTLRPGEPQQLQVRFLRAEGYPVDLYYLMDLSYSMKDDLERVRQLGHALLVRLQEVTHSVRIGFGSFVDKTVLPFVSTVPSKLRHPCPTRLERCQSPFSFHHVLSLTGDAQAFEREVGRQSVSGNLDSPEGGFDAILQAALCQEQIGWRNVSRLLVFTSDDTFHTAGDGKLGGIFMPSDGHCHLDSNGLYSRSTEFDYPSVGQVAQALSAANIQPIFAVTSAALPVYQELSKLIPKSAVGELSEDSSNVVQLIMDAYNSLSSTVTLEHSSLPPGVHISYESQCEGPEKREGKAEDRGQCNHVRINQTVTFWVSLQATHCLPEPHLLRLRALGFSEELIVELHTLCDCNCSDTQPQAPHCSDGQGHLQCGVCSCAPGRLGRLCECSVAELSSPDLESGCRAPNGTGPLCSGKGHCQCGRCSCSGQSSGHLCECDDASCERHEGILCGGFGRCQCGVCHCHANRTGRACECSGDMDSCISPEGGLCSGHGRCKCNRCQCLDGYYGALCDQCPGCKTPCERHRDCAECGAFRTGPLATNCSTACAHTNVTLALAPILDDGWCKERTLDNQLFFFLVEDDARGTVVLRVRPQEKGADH
# Assay: α4β7-MadCAM Competition ELISA (Example 4)
# Assay type: binding
# Details: Table 3 Representative compounds; inhibition of MAdCAM binding to coated α4β7; read-out: IC50
# Protocol: After washing with wash buffer, 200 μL assay buffer was added to each well and incubated for one hour at 28° C. After another wash with wash buffer, 100 μL of a MAdCAM and peptide mixture in assay buffer was added to each well and incubated for one hour at 28° C., followed by washing with wash buffer.
row,SMILES,IC50 [nM]
1,"CCCC[C@@H]1NC(=O)[C@@H]2CCCN2C(=O)[C@@H]2CSCc3cc(cc(c3)OCCCCCCC(=O)NCC(=O)N[C@@H](CCCCN)C(=O)N2)CSC[C@@H](C(N)=O)NC(=O)[C@H](CCC(=O)O)NC(=O)[C@H](CCC(N)=O)NC(=O)[C@H](Cc2c[nH]c3ccccc23)NC(=O)[C@H](CC2CCC2)NC(=O)[C@H](CC(=O)O)NC1=O [compound 45, TSLC7-GKCP{Nle}D {CbA}WQEC] (GKCP[Nle]D[Cba]WQEC-NH2; linker N-3-11 via X5)",1610
2,"CC[C@H](C)[C@@H]1NC(=O)[C@H](CC(=O)O)NC(=O)[C@H](CCSC)NC(=O)[C@@H]2CCCN2C(=O)[C@@H](NC(=O)[C@H](CCCNC(=N)N)NC(=O)[C@H](CO)NC(C)=O)CSSC[C@@H](C(=O)N[C@@H](CCCCNC(=O)CCOCCOCCOCCOCCOCCC(=O)NCCCC[C@H](NC(=O)[C@@H]2CSSC[C@H](NC(=O)[C@H](CCCNC(=N)N)NC(=O)[C@H](CO)NC(C)=O)C(=O)N3CCC[C@H]3C(=O)N[C@@H](CCSC)C(=O)N[C@@H](CC(=O)O)C(=O)N[C@@H]([C@@H](C)CC)C(=O)N[C@@H](C)C(=O)NCC(=O)N[C@@H](CCC(=O)O)C(=O)N2)C(N)=O)C(N)=O)NC(=O)[C@H](CCC(=O)O)NC(=O)CNC(=O)[C@H](C)NC1=O [compound 49] (I: Ac-SRCPMDIAGECK-NH2 / II: Ac-SRCPMDIAGECK-NH2; disulfide I:3-I:11, II:3-II:11; linker I:12-II:12 via CO(CH2CH2O)5CH2CH2CO)",1730
3,CC[C@H](C)[C@@H]1NC(=O)[C@H](CC(=O)O)NC(=O)[C@H](CCSC)NC(=O)[C@@H]2CCCN2C(=O)[C@@H]2CSCc3cc(cc(c3)OCCCCCCO/N=C/C(=O)N[C@@H](CCCCN)C(=O)N2)CSC[C@@H](C(N)=O)NC(=O)[C@H]([C@@H](C)O)NC(=O)[C@@H]2CCCN2C1=O [compound 18] (KCPMDIPTC-NH2; linker N-2-9 via X3),345
4,"CSCC[C@@H]1NC(=O)[C@H](CO)NC(=O)[C@H](CC(=O)O)NC(=O)[C@@H]2CCCN2C(=O)[C@@H]2CSCc3cc(cc(c3)OCCCCCCO/N=C/C(=O)N[C@@H](CC(=O)O)C(=O)N2)CSC[C@@H](C(N)=O)NC(=O)[C@H](CO)NC(=O)[C@H](Cc2cnc[nH]2)NC(=O)[C@H](C)NC1=O [compound 65, TSL6- SDCPDSMAHSC] (DCPDSMAHSC-NH2; linker N-2-10 via X3)",13800
5,"CC(C)C[C@@H]1NC(=O)[C@@H]2CCCN2C(=O)[C@@H]2CSCc3cc(cc(c3)OCCCCCCO/N=C/C(=O)N[C@@H](CCCCN)C(=O)N2)CSC[C@@H](C(N)=O)NC(=O)[C@H](CO)NC(=O)[C@@H]2CCCN2C(=O)[C@H](C(C)C)NC(=O)[C@H](C)NC1=O [compound 81, TSL6- SKCPLAVPSC] (KCPLAVPSC-NH2; linker N-2-9 via X3)",55900
6,"CC[C@@H](C)C1NC(=O)[C@H](Cc2ccc(O)cc2)NC(=O)[C@H](CCCNC(=N)N)NC(=O)[C@H](CCC(=O)O)NC(=O)[C@H](C)NC(=O)[C@H](CC(=O)O)NC(=O)[C@@H]2CCCN2C(=O)[C@@H]2CSCc3cc(cc(c3)OCCCCCCO/N=C/C(=O)N[C@@H](CO)C(=O)N2)CSC[C@@H](C(N)=O)NC1=O (stereo partly drawn) [compound 44, TSL6- SDCPDAERYIC] (SCPDAERY[X6]C-NH2; linker N-2-10 via X3)",1460
7,"CCCC[C@@H]1NC(=O)[C@H](CO)NC(=O)[C@@H]2CSSC[C@@H](C(=O)N[C@@H](Cc3c[nH]c4ccccc34)C(=O)N[C@@H](CCC(N)=O)C(N)=O)NC(=O)[C@H](C(C)C)NC(=O)[C@@H](CC(=O)O)NC(=O)[C@H](CC(C)C)NC(=O)[C@H](CO)NC(=O)[C@H](CCCNC(=N)N)NC(=O)[C@H](CSCC(=O)N[C@@H](CCCNC(=N)N)C(=O)N2)NC(=O)[C@H]([C@@H](C)CC)NC(=O)[C@H](CC(=O)O)NC1=O [compound 70, Disulfide- RCS{Nle}DICRS LDVCWQ] ({CH2CO}-RCS[Nle]DICRSL[dD]VCWQ-NH2; disulfide 2-13; thioether N-7)",19700
8,"C[C@@H](O)[C@@H]1NC(=O)[C@H](Cc2ccccc2)NC(=O)[C@H](CCCCN)NC(=O)[C@H](CC(=O)O)NC(=O)[C@H](Cc2cnc[nH]2)NC(=O)[C@@H]2CSCc3cc(cc(c3)OCCCCCCO/N=C/C(=O)N[C@@H](CO)C(=O)N2)CSC[C@@H](C(N)=O)NC(=O)[C@H](CCC(=O)O)NC1=O [compound 60, TSL6- SDCHDKFTEC] (SCHDKFTEC-NH2; linker N-2-9 via X3)",5430
9,"CC(C)[C@@H]1NC(=O)[C@H](CCCCN)NC(=O)[C@@H]2CCCN2C(=O)[C@@H]2CCCN2C(=O)[C@H](CC(=O)O)NC(=O)[C@H](Cc2cnc[nH]2)NC(=O)[C@@H]2CSCc3cc(cc(c3)OCCCCCCO/N=C/C(=O)N[C@@H](CO)C(=O)N2)CSC[C@@H](C(N)=O)NC1=O [compound 77, TSL6- SKCPADVPSC] (SCHDPPKVC-NH2; linker N-2-9 via X3)",41100
10,"CC(C)C[C@@H]1NC(=O)[C@@H]2CCCN2C(=O)[C@@H]2CSCc3cc(cc(c3)OCCCCCCO/N=C/C(=O)N[C@@H](C)C(=O)N2)CSC[C@@H](C(N)=O)NC(=O)[C@H](CCC(=O)O)NC(=O)[C@H](Cc2ccc(O)cc2)NC(=O)[C@@H]2CCCN2C(=O)C([C@@H](C)O)NC(=O)[C@H](CC(=O)O)NC1=O (stereo in doubt) [compound 43, TSL6- SACPLDTPYEC]",1450
11,"CC(C)C[C@@H]1NC(=O)[C@@H]2CCCN2C(=O)[C@@H]2CSCc3cc(cc(c3)OCCCCCCO/N=C/C(=O)N[C@@H](CCCCN)C(=O)N2)CSC[C@@H](C(N)=O)NC(=O)[C@H](CO)NC(=O)[C@@H]2CCCN2C(=O)[C@H](C(C)C)NC(=O)[C@H](CC(=O)O)NC1=O [compound 31, TSL6- SKCPLDVPSC] (KCPLDVPSC-NH2; linker N-2-9 via X3)",723
12,"CC[C@H](C)[C@@H]1NC(=O)[C@H](CC(=O)O)NC(=O)[C@H](CCSC)NC(=O)[C@@H]2CCCN2C(=O)[C@@H]2CSCc3cc(cc(c3)OCCCCCCO/N=C/C(=O)N[C@@H](CCC(N)=O)C(=O)N2)CSC[C@@H](C(N)=O)NC(=O)[C@H](C)NC(=O)[C@@H]2CCCN2C1=O [compound 46, TSL6- SQCPMDIPAC] (QCPMDIPAC-NH2; linker N-2-9 via X3)",1640
13,"CSCC[C@@H]1NC(=O)[C@H](CC(=O)O)NC(=O)[C@H](CC(C)C)NC(=O)[C@@H]2CCCN2C(=O)[C@@H]2CSCc3cc(cc(c3)OCCCCCCO/N=C/C(=O)N[C@@H](CCCCN)C(=O)N2)CSC[C@@H](C(N)=O)NC(=O)[C@H](CCC(=O)O)NC(=O)[C@H](Cc2ccc(O)cc2)NC(=O)[C@@H]2CCCN2C1=O [compound 29, TSL6- SKCPLDMPYEC] (KCPLDMPYEC-NH2; linker N-2-10 via X3)",672
14,"CCCCCOc1cc2cc(c1)CSC[C@H](NC(=O)[C@H](Cc1ccccc1)NC(=O)/C=N/OC)C(=O)N[C@@H](CC(C)C)C(=O)NCC(=O)N[C@@H](Cc1ccc(O)cc1)C(=O)N[C@@H](CCC(=O)O)C(=O)N[C@@H](C)C(=O)N[C@@H]([C@@H](C)O)C(=O)N[C@H](C(N)=O)CSC2 [compound 97, TSL6- SFCLGYEASC] (X10-FCLGYEATC-NH2; linker 2-9 via X11)",127000

# Same assay, conditions: competition ELISA, 4 μg/mL α4β7 coated, MAdCAM and peptide mixture, 28° C.; read-out: IC50
row,SMILES,IC50 [nM]
1,CC(C)C[C@@H]1NC(=O)[C@@H]2CCCN2C(=O)[C@@H]2CSCc3cc(cc(c3)OCCCCCCON=CC(=O)N[C@@H](CCCCN)C(=O)N2)CSC[C@@H](C(=O)O)NC(=O)[C@H](CO)NC(=O)[C@@H]2CCCN2C(=O)[C@H](C(C)C)NC(=O)[C@H](C)NC1=O [SEQ ID NO: 56] (KCPLAVPSC-OH; linker N-2-9 via X1),55900
